Test results from patent US9168247B2, “Beta carboline derivatives useful in the treatment of proliferative disorders” (FACULTES UNIVERSITAIRES NOTRE DAME DE LA PAIX, priority 2010, dated 2015).
Like-named read-outs stand apart in the source and are kept apart here.

Key:
[1] = tested on: OE21 oesophageal cancer cells; assay: MTT test, overall cell growth, OE21; type: cell-based, human
Procedure: (§1) MTT tests were performed in order to rapidly, i.e., within 5 days, measure the effect of the present compounds on the overall cell growth. The test measured the number of metabolically active living cells that were able to transform the yellow product 3-(4,5-dimethylthiazol-2-yl)-2,5-diphenyl tetrazolium bromide (herein referred as MTT) into the blue product formazan dye by mitochondrial reduction. The amount of formazan obtained at the end of the experiment, measured by means of a spectrophotometer, is directly proportional to the number of living cells. Optical density determination thus enabled a quantitative measurement of the effect of the investigated compounds as compared to the control condition (untreated cells) and/or to other reference compounds.
(§2) Five human cancer cell lines set forth in Table 3 were used in the MTT tests. These cancer cell lines cover two histological cancer types including glioma (Hs683, T98G, U373), and oesophageal (OE21, OE33) cancers. The U373 cell line is apoptosis-resistant but autophagy-sensitive.
(§3) To perform the assay, cells were allowed to grow in 96-well micro-wells with a flat bottom with an amount of 100 μl of cell suspension per well with 5,000 to 8,000 cells/well depending on the cell type used. Each cell line was seeded in its appropriate culture medium.
(§4) The detailed experimental procedure was as follows: after a 24-hour period of incubation at 37° C., the culture medium was replaced by 100 μl of fresh medium in which the tested compound was previously dissolved, at the following molar concentrations: 1×10^−8 M, 5×10^−8 M, 1×10^−7 M, 5×10^−7 M, 1×10^−6 M, 5×10^−6 M, 1×10^−5 M, 5×10^−5 M and 1×10^−4 M. Each experiment was performed in sestuplicate (6 times).
(§5) After 72 hours of incubation at 37° C. with (experimental conditions) or without (control condition) the compound to be tested, the medium was replaced by 100 μl MTT dissolved in RPMI (1640 without phenol red) at a concentration of 0.5 or 1 mg/ml. The micro-wells were subsequently incubated during 3 hours and a half at 37° C. and centrifuged at 1300 rpm during 10 minutes. MTT was removed and formazan crystals formed were dissolved in […]. The micro-wells were shaken for 5 minutes and read on a spectrophotometer at wavelengths of 570 nm (maximal formazan absorbance).
(§6) For each experimental condition, the mean optical density was calculated, allowing the determination of the percentage of remaining living cells in comparison to the control.
(§7) The origin of all the cell lines we used, along with their biological characteristics, and the validation procedures of the MTT colorimetric assay as employed here are fully detailed in Van Quaquebeke et al., 2005, J Med Chem 48:849-856; Ingrassia et al., 2009, J Med Chem 52:1100-1114; Mathieu et al., 2009, J Cell Mol Med, Feb. 20, 2009.

[2] = tested on: human cancer cell lines (U373, T98G, Hs683, OE21, OE33); assay: MTT test, mean over the cancer cell lines; type: cell-based
Procedure: as §1, §2, §3, §4, §5, §6, §7

U373 glioma cells = assay: MTT test, overall cell growth, U373; type: cell-based, human; details: 72 hours of incubation
Procedure: as §1, §2, §3, §4, §5, §6, §7

U373 cells = assay: Cellular imaging (videomicroscopy) of cultured U373 cells: antiproliferative class and global growth ratio; type: cell-based, human; parameters: key to Anti proliferative class / anti-proliferative class-GGR: class I: actually cytostatic for 3 days (<10% of cell death at the 3rd day); class II: cyctostatic but becomes cytotoxic with <10% cell death on the 2nd day, and >20% of cell death on the 3rd day; class III: cytostatic but rapidly becomes cytotoxic with <10% cell death on the 1st day, >20% of cell death on the 2nd day and >50% of cell death on the 3rd day; class IV: cytotoxic (>50% of cell death on the first day); details: for global growth ratio (GGR): GG treated cells/GG control cells, 72 h after drug addition, drug at its IC50 (MTT-test determined); for Anti proliferative class: cellular imaging of cultured U373 cells over three consecutive days
Excerpt: The effects of the di- and tri-substituted beta-carboline derivatives as described herein can also be determined on cell proliferation, migration and morphology by means of a cellular imaging approach (Debeir et al., Cytometry 60:29-40, 2004; Debeir et al., IEEE Trans Med Imaging 24:697-711, 2005) either in, e.g., the human U373-MG glioma cell line, which is apoptosis-resistant but autophagy-sensitive (Lefranc F et al., Neurosurgery 2008) or in, e.g., the human A549 non-small-cell-lung cancer cell line, which is apoptosis-resistant and autophagy-resistant (Mijatovic T et al., Neoplasia 2006, May; 8(5):402-12).
[…] The experiments are conducted in quadruplicates.
The behaviour of the cells, in terms of morphology, growth and death are thus investigated. The effect on the overall growth is measured by counting the number of cells on the first (0 h) and the last image (72 h) of each film. The global growth ratio (GGR) is then deduced by dividing the number of cells on the last image by the number of cells on the first image. The ratio GGRtreated cells/GGRcontrol cells is further calculated thereby providing a value that describes the effect of compounds of the present invention on the overall cell growth.
The methodology is fully described and validated in Debeir et al., 2008, Exp Cell Res 314:2985-2998 and Mathieu et al., 2009, J Cell Mol Med, Feb. 20, 2009.

Hs683 glioma cells = assay: MTT test, overall cell growth, Hs683; type: cell-based, human
Procedure: as §1, §2, §3, §4, §5, §6, §7

[3] = tested on: OE33 oesophageal cancer cells; assay: MTT test, overall cell growth, OE33; type: cell-based, human
Procedure: as §1, §2, §3, §4, §5, §6, §7

T98G glioma cells = assay: MTT test, overall cell growth, T98G; type: cell-based, human; details: 72 hours of incubation
Procedure: as §1, §2, §3, §4, §5, §6, §7

[4] = mean over the cancer cell lines, MTT test, read-out: IC50 Mean ± SEM
[5] = Homo sapiens, OE21, 72 hours of incubation
[6] = Homo sapiens, mean over the cancer cell lines, MTT test, read-out: IC50 Mean ± SEM
[7] = Homo sapiens, Hs 683, 72 hours of incubation
[8] = Homo sapiens, OE33, 72 hours of incubation
[9] = Homo sapiens, Glioma cell, MTT assay, submicromolar range, e.g. as low as, read-out: mean anti-proliferative effect on the glioma cell lines

| IC50 [1, 5] [nM] | IC50 [2, 6] [µM] | IC50 (U373 glioma cells; Homo sapiens, U373 MG) [nM] | IC50 (Hs683 glioma cells; [7]) [nM] | IC50 [3, 8] [nM] | IC50 (T98G glioma cells; Homo sapiens, T98G) [nM] | IC50 [2, 9] [µM] | IC50 ([2]; Homo sapiens, Table 4, mean over cell lines, read-out: IC50 μM growth inhibition (MTT test)) [µM] | Structure (SMILES) | IC50 ([1]; 72 hours of incubation) [nM] | IC50 [2, 4] [µM] | IC50 (U373 glioma cells) [nM] | global growth ratio (GGR) (U373 cells) | Anti proliferative class (U373 cells) | IC50 (Hs683 glioma cells; 72 hours of incubation) [nM] | IC50 ([3]; 72 hours of incubation) [nM] | IC50 (T98G glioma cells) [nM] |
| --- | --- | --- | --- | --- | --- | --- | --- | --- | --- | --- | --- | --- | --- | --- | --- | --- |
| – | – | – | – | – | – | – | – | Cc1nccc2c1[nH]c1cc(OCCCC(F)(F)F)ccc12 [JR110] | > 100000 | > 97 | > 100000 | 0.2 | IV (class IV: cytotoxic (>50% of cell death on the first day)) | > 100000 | > 100000 | 86000 ± 11000 |
| 15000 ± 2000 | 20 ± 3 | 30000 ± 1000 | 17000 ± 2000 | 25000 ± 2000 | 14000 ± 2000 | – | – | Cc1nccc2c3ccc(OCc4ccc(F)cc4)cc3n(Cc3ccc(F)cc3)c12 [CV11, 1-methyl-7-(4-fluorobenzyloxy)-9-(4-fluorobenzyl)-β-carboline] | – | – | – | 0.2 | III | – | – | – |
| 1400 ± 300 | 1.6 ± 0.4 | 600 ± 200 | 2200 ± 200 | 3000 ± 200 | 700 ± 200 | – | – | Cc1c2c(cc[n+]1Cc1ccccc1F)c1ccc(OCc3cccc(F)c3)cc1n2Cc1cccc(F)c1.[Br-] [CV19, 1-methyl-2-(2-fluorobenzyl)-7-(3-fluorobenzyl)oxy-9-(3-fluorobenzyl)-β-carbolin-2-ium bromide] | – | – | – | 0.2 | I (class I: actually cytostatic for 3 days (<10% of cell death at the 3rd day)) | – | – | – |
| – | – | – | – | – | – | – | – | C=CCOc1ccc2c(c1)[nH]c1c(C)nccc12 [JR211] | 27000 ± 2000 | 30 ± 1 | 32000 ± 2000 | 0.2 | II | 28000 ± 1000 | 29800 ± 700 | 32000 ± 700 |
| 610 ± 40 | 1.2 ± 0.4 | 590 ± 60 | 1600 ± 300 | 2400 ± 300 | 560 ± 50 | – | – | Cc1c2c(cc[n+]1Cc1ccc(F)cc1)c1ccc(OCc3ccccc3)cc1n2Cc1ccccc1.[Br-] [CV17, 1-methyl-2-(4-fluorobenzyl)-7-benzyloxy-9-benzyl-β-carbolin-2-ium bromide] | – | – | – | 0.4 | I (class I: actually cytostatic for 3 days (<10% of cell death at the 3rd day)) | – | – | – |
| 1400 ± 200 | 1.6 ± 0.4 | 40 ± 10 | 3100 ± 300 | 1000 ± 100 | 2000 ± 600 | – | – | Cc1c2c(cc[n+]1Cc1ccc(F)cc1)c1ccc(OCC3CCCCC3)cc1n2CC1CCCCC1.[Br-] [CV30, 1-methyl-2-(4-fluorobenzyl)-7-cyclohexylmethyloxy-9-cyclohexylmethyl-β-carbolin-2-ium bromide] | – | – | – | 0.8 | I (class I: actually cytostatic for 3 days (<10% of cell death at the 3rd day)) | – | – | – |
| 500 ± 90 | 0.8 ± 0.2 | 430 ± 70 | 900 ± 100 | 1400 ± 100 | 400 ± 40 | 0.34 to 0.8 | – | Cc1c2c(cc[n+]1Cc1ccccc1)c1ccc(OCc3ccc(F)cc3)cc1n2Cc1ccc(F)cc1.[Br-] [CV23, 1-methyl-2-benzyl-7-(4-fluorobenzyl)oxy-9-(4-fluorobenzyl)-β-carbolin-2-ium bromide] | – | – | – | 0.3 | I (class I: actually cytostatic for 3 days (<10% of cell death at the 3rd day)) | – | – | – |
| 570 ± 80 | 1.1 ± 0.4 | 410 ± 30 | 2600 ± 200 | 300 ± 50 | 1700 ± 500 | – | – | CCCn1c2cc(OCc3ccccc3)ccc2c2cc[n+](Cc3ccccc3)c(C)c21.[Br-] [CV34, 1-methyl-2-benzyl-7-benzyloxy-9-propyl-β-carbolin-2-ium bromide] | – | – | – | 0.3 | III | – | – | – |
| 1900 ± 300 | 2.5 ± 0.9 | 880 ± 60 | 3100 ± 600 | 1000 ± 100 | 5700 ± 200 | – | – | CCCn1c2cc(OCc3ccccc3)ccc2c2cc[n+](Cc3ccc(F)cc3)c(C)c21.[Br-] [CV36, 1-methyl-2-(4-fluorobenzyl)-7-benzyloxy-9-propyl-β-carbolin-2-ium bromide] | – | – | – | 0.1 | IV (class IV: cytotoxic (>50% of cell death on the first day)) | – | – | – |
| 420 ± 8 | 0.34 ± 0.05 | 370 ± 20 | 380 ± 9 | 370 ± 10 | 160 ± 30 | 0.34 to 0.8 | 0.34 | Cc1c2c(cc[n+]1Cc1ccccc1)c1ccc(OCC3CCCCC3)cc1n2CC1CCCCC1.[Br-] [CV24, 1-methyl-2-benzyl-7-cyclohexylmethyloxy-9-cyclohexylmethyl-β-carbolin-2-ium bromide] | – | – | – | 0.3 | I (class I: actually cytostatic for 3 days (<10% of cell death at the 3rd day)) | – | – | – |
| 23000 ± 2000 | 21 ± 4 | 26000 ± 1000 | 13000 ± 1000 | 9000 ± 1000 | 34000 ± 1000 | – | – | CCCn1c2cc(OCc3ccccc3)ccc2c2ccnc(C)c21 [CV33, 1-methyl-7-benzyloxy-9-propyl-β-carboline] | – | – | – | 0.3 | III | – | – | – |
| 7900 ± 200 | 14 ± 5 | 400 ± 60 | 17500 ± 900 | 16000 ± 2000 | 27000 ± 1000 | – | – | Cc1nccc2c3ccc(OCc4cccc(F)c4)cc3n(Cc3cccc(F)c3)c12 [CV5, 1-methyl-7-(3-fluorobenzyloxy)-9-(3-fluorobenzyl)-β-carboline] | – | – | – | 0.9 | I (class I: actually cytostatic for 3 days (<10% of cell death at the 3rd day)) | – | – | – |
| – | – | – | – | – | – | – | – | Cc1nccc2c1[nH]c1cc(OCCc3ccccc3)ccc12 [JR155] | 14000 ± 1000 | 15 ± 3 | 9100 ± 600 | 0.2 | IV (class IV: cytotoxic (>50% of cell death on the first day)) | 21000 ± 3000 | 7900 ± 300 | 21000 ± 1000 |
| 21000 ± 1000 | 14 ± 3 | 9300 ± 200 | 17000 ± 2000 | 4100 ± 600 | 17000 ± 3000 | – | – | Cc1nccc2c1[nH]c1cc(OCc3ccccc3)ccc12 [JR79, 1-methyl-7-benzyloxy-β-carboline] | – | – | – | 0.2 | III | – | – | – |
